Experimental findings from patent US9388140B2, “Substituted benzimidazoles” (priority 2011, dated 2016) are described below.

Structures are written as SMILES.

Chain of human kinase Mps-1 (P33981 whole entry): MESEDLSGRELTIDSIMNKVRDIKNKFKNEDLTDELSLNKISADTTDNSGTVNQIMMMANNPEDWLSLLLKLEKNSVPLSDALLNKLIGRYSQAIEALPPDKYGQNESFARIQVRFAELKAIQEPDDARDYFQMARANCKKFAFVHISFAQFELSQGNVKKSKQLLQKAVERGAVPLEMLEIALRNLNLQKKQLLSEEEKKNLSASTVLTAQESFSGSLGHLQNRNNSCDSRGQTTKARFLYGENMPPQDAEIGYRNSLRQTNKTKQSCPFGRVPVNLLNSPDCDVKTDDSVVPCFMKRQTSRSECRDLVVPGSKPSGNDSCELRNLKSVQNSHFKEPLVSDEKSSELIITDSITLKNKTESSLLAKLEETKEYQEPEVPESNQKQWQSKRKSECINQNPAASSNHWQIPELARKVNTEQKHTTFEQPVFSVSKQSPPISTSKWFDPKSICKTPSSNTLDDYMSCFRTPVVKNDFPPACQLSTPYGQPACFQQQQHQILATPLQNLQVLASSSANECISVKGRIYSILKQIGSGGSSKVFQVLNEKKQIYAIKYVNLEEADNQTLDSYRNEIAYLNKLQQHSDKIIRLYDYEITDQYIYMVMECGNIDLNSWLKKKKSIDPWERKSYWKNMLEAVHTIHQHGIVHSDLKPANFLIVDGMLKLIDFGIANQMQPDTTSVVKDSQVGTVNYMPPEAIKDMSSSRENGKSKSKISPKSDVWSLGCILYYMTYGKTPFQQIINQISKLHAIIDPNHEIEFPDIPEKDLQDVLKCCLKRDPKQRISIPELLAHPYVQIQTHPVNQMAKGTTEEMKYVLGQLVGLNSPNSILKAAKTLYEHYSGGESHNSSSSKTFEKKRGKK

For the assay, the target named is human kinase Mps-1 (Homo sapiens (Human), UniProt P33981). As to the kind of experiment: Mps-1 kinase assay (TR-FRET). The settings on record: N-terminally GST-tagged human full length recombinant Mps-1; 10 μM ATP; 1 μM biotinylated peptide substrate; read-out: Mps1 IC50. Type of assay: biochemical. The protocol:
The human kinase Mps-1 phosphorylates a biotinylated substrate peptide. Detection of the phosphorylated product is achieved by time-resolved fluorescence resonance energy transfer (TR-FRET) from Europium-labelled anti-phospho-Serine/Threonine antibody as donor to streptavidin labelled with cross-linked allophycocyanin (SA-XLent) as acceptor. Compounds are tested for their inhibition of the kinase activity.
N-terminally GST-tagged human full length recombinant Mps-1 kinase (purchased from Invitrogen, Karslruhe, Germany, cat. no PV4071) was used. As substrate for the kinase reaction a biotinylated peptide of the amino-acid sequence […] (C-terminus in amide form, purchased from Biosynthan GmbH, Berlin) was used.
The concentration of Mps-1 in the assay was adjusted to the activity of the enzyme lot and was chosen appropriate to have the assay in the linear range, typical enzyme concentrations were in the range of about 1 nM (final conc. in the 5 μl assay volume).
The resulting mixture was incubated 1 h at 22° C. to allow the binding of the phosphorylated peptide to the anti-phospho(Ser/Thr)-Europium-antibody. Subsequently the amount of phosphorylated substrate was evaluated by measurement of the resonance energy transfer from the Europium-labelled anti-phospho(Ser/Thr) antibody to the Streptavidin-XLent.
(In TR-FRET formats the signal depends on donor and acceptor labels being close together.)
Usually IC50 stands for the concentration that inhibits the measured activity by half. On to `Cc1cc(-n2cnc3c(NCC4CCOCC4)cc(Oc4ccc(O)cc4F)cc32)ccc1C(=O)NC1CC1` [Example 116A, N-cyclopropyl-4-{6-(2-fluoro-4-hydroxyphenoxy)-4-[(tetrahydro-2H-pyran-4-ylmethyl)amino]-1H-benzimidazol-1-yl}-2-methylbenzamide], for which the concentration for half-maximal inhibition (IC50) amounted to 1 nM. Consider `Cc1ccc(F)cc1Oc1cc(NCC2CCOCC2)c2ncn(-c3ccc(C(=O)NC4CC4)c(C)c3)c2c1` [Example 16, N-cyclopropyl-4-{6-(5-fluoro-2-methylphenoxy)-4-[(tetrahydro-2H-pyran-4-ylmethyl)amino]-1H-benzimidazol-1-yl}-2-methylbenzamide], for which the IC50 turned out to be 0.6 nM. For `COc1ccc(Cc2cc(NCCC(F)(F)F)c3ncn(-c4ccc(C(=O)NC5CC5)c(C)c4)c3c2)cc1F` [Example 106, N-cyclopropyl-4-{6-(3-fluoro-4-methoxybenzyl)-4-[(3,3,3-trifluoropropyl)amino]-1H-benzimidazol-1-yl}-2-methylbenzamide], the concentration for half-maximal inhibition (IC50) is 0.9 nM. Regarding `CNC(=O)c1ccc(-n2cnc3c(NCCC(F)(F)F)cc(Oc4cccc(OC)c4)cc32)cc1C` [Example 68, 4-{6-(3-methoxyphenoxy)-4-[(3,3,3-trifluoropropyl)amino]-1H-benzimidazol-1-yl}-N, 2-dimethylbenzamide], the IC50 turned out to be 8.8 nM. For the compound `COc1ccc(C(=O)c2cc(NCCC(F)(F)F)c3ncn(-c4ccc(C(=O)NC5CC5)c(C)c4)c3c2)cc1F` [Example 101, N-cyclopropyl-4-{6-(3-fluoro-4-methoxybenzoyl)-4-[(3,3,3-trifluoropropyl)amino]-1H-benzimidazol-1-yl}-2-methylbenzamide], the half-inhibitory concentration (IC50) was determined as 6.4 nM. To `CNC(=O)c1ccc(-n2cnc3c(NCCC(F)(F)F)cc(Oc4cccc(F)c4F)cc32)cc1C` [Example 67, 4-{6-(2,3-difluorophenoxy)-4-[(3,3,3-trifluoropropyl)amino]-1H-benzimidazol-1-yl}-N,2-dimethylbenzamide] belongs 1 nM; to `Cc1cc(-c2cc(NCCC(F)(F)F)c3ncn(-c4ccc(C(=O)NC5CC5)c(C)c4)c3c2)ccc1C(=O)NC1CC1` [Example 51, 4,4′-{4-[(3,3,3-Trifluoropropyl)amino]-1H-benzimidazole-1,6-diyl}bis(N-cyclopropyl-2-methylbenzamide)], 0.9 nM. As for `COc1c(F)cccc1Oc1cc(NCCC(F)(F)F)c2ncn(-c3ccc(C(=O)NC4CC4)c(C)c3)c2c1` [Example 57, N-cyclopropyl-4-{6-(3-fluoro-2-methoxyphenoxy)-4-[(3,3,3-trifluoropropyl)amino]-1H-benzimidazol-1-yl}-2-methylbenzamide], the IC50 was found to be 6.8 nM.

With `COc1ccc(C(C)c2cc(NCCC(F)(F)F)c3ncn(-c4ccc(C(=O)NC5CC5)c(C)c4)c3c2)cc1F` (racemic) [Example 105, N-cyclopropyl-4-{6-[(1RS)-1-(3-fluoro-4-methoxyphenyl)ethyl]-4-[(3,3,3-trifluoropropyl)amino]-1H-benzimidazol-1-yl}-2-methylbenzamide], the half-inhibitory concentration (IC50) was 2.9 nM. To `Cc1cc(-n2cnc3c(NCCC(F)(F)F)cc(-c4ccncc4)cc32)ccc1C(=O)NC1CC1` [Example 2, N-cyclopropyl-2-methyl-4-{6-(pyridin-4-yl)-4-[(3,3,3-trifluoropropyl)amino]-1H-benzimidazol-1-yl}benzamide] belongs 0.2 nM.

Regarding `CNC(=O)c1ccc(-n2cnc3c(NCCC(F)(F)F)cc(Oc4ccc(O)c(F)c4)cc32)cc1C` [Example 99, 4-{6-(3-fluoro-4-hydroxyphenoxy)-4-[(3,3,3-trifluoropropyl)amino]-1H-benzimidazol-1-yl}-N,2-dimethylbenzamide], the half-inhibitory concentration (IC50) is 2.4 nM.

Take `CCNC(=O)c1ccc(-n2cnc3c(NCC4CCOCC4)cc(Oc4ccc(OC)c(F)c4)cc32)cc1C` [Example 43, N-ethyl-4-{6-(3-fluoro-4-methoxyphenoxy)-4-[(tetrahydro-2H-pyran-4-ylmethyl)amino]-1H-benzimidazol-1-yl}-2-methylbenzamide]: the half-inhibitory concentration (IC50) stood at 4 nM. In the case of `COc1cc(C#N)ccc1Oc1cc(NCCC(F)(F)F)c2ncn(-c3ccc(C(=O)NC4CC4)c(C)c3)c2c1` [Example 73, 4-{6-(4-cyano-2-methoxyphenoxy)-4-[(3,3,3-trifluoropropyl)amino]-1H-benzimidazol-1-yl}-N-cyclopropyl-2-methylbenzamide], the IC50 worked out at 52.2 nM.

Consider `CCNC(=O)c1ccc(-n2cnc3c(NCCC(F)(F)F)cc(-c4ccnn4C)cc32)cc1C` [Example 31, N-ethyl-2-methyl-4-{6-(1-methyl-1H-pyrazol-5-yl)-4-[(3,3,3-trifluoropropyl)amino]-1H-benzimidazol-1-yl}benzamide], for which the concentration for half-maximal inhibition (IC50) stood at 33 nM. Next, `Cc1cc(-n2cnc3c(NCCC(F)(F)F)cc(Oc4ccc(-n5cncn5)cc4)cc32)ccc1C(=O)NC1CC1` [Example 78, N-cyclopropyl-2-methyl-4-{6-[4-(1H-1,2,4-triazol-1-yl)phenoxy]-4-[(3,3,3-trifluoropropyl)amino]-1H-benzimidazol-1-yl}benzamide]: 11 nM; `CNC(=O)c1ccc(-n2cnc3c(NCC4CCOCC4)cc(Oc4ccc(O)c(F)c4)cc32)cc1C` [Example 112, 4-{6-(3-fluoro-4-hydroxyphenoxy)-4-[(tetrahydro-2H-pyran-4-ylmethyl)amino]-1H-benzimidazol-1-yl}-N,2-dimethylbenzamid]: 3.6 nM. Regarding `Cc1cc(-n2cnc3c(NCC4CCOCC4)cc(-c4ccccc4CO)cc32)ccc1C(=O)NC1CC1` [Example 20, N-cyclopropyl-4-{6-[2-(hydroxymethyl)phenyl]-4-[(tetrahydro-2H-pyran-4-ylmethyl)amino]-1H-benzimidazol-1-yl}-2-methylbenzamide], the IC50 came out at 1.5 nM. On to `COc1cccc(Oc2cc(NCCC(F)(F)F)c3ncn(-c4ccc(C(=O)NC5CC5)c(C)c4)c3c2)c1` [Example 70, N-cyclopropyl-4-{6-(3-methoxyphenoxy)-4-[(3,3,3-trifluoropropyl)amino]-1H-benzimidazol-1-yl}-2-methylbenzamide], for which the IC50 turned out to be 2 nM. Turning to `Cc1cc(-n2cnc3c(NCC4CCOCC4)cc(Oc4ccc(O)c(F)c4)cc32)ccc1C(=O)NC1CC1` [Example 114A, N-cyclopropyl-4-{6-(3-fluoro-4-hydroxyphenoxy)-4-[(tetrahydro-2H-pyran-4-ylmethyl)amino]-1H-benzimidazol-1-yl}-2-methylbenzamide], the IC50 amounted to 0.7 nM. Regarding `Cc1cc(-n2cnc3c(NCCC(F)(F)F)cc(Oc4ccc(OCc5ccccc5)cc4)cc32)ccc1C(=O)NC1CC1` [Example 45, 4-{6-[4-(Benzyloxy)phenoxy]-4-[(3,3,3-trifluoropropyl)amino]-1H-benzimidazol-1-yl}-N-cyclopropyl-2-methylbenzamide], the half-maximal inhibitory concentration (IC50) is 6.7 nM. For the compound `CCNC(=O)c1ccc(-n2cnc3c(NCCC(F)(F)F)cc(Oc4ccc(O)cc4F)cc32)cc1C` [Example 98, N-ethyl-4-{6-(2-fluoro-4-hydroxyphenoxy)-4-[(3,3,3-trifluoropropyl)amino]-1H-benzimidazol-1-yl}-2-methylbenzamide], the concentration for half-maximal inhibition (IC50) was determined as 4.6 nM.

With `CCNC(=O)c1ccc(-c2cc(NCCC(F)(F)F)c3ncn(-c4ccc(C(=O)NC5CC5)c(C)c4)c3c2)cc1C` [Example 53, 4-{1-[4-(Cyclopropylcarbamoyl)-3-methylphenyl]-4-[(3,3,3-trifluoropropyl)amino]-1H-benzimidazol-6-yl}-N-ethyl-2-methylbenzamide], the IC50 stood at 1.9 nM. Consider `CC(C)CNc1cc(-c2ccc(F)cc2)cc2c1ncn2-c1ccc(C(=O)NC2CC2)cc1` [Example 7, N-cyclopropyl-4-{6-(4-fluorophenyl)-4-[(2-methylpropyl)amino]-1H-benzimidazol-1-yl}benzamide], for which the IC50 came to 1.9 nM. With `Cc1cc(-n2cnc3c(NCCC(F)(F)F)cc(Oc4cccc(F)c4)cc32)ccc1C(=O)NC1CC1` [Example 4, N-cyclopropyl-4-{6-(3-fluorophenoxy)-4-[(3,3,3-trifluoropropyl)amino]-1H-benzimidazol-1-yl}-2-methylbenzamide], the IC50 came to 0.7 nM. Turning to `Cc1cc(-n2cnc3c(NCCC(F)(F)F)cc(Nc4cccc(F)c4F)cc32)ccc1C(=O)NC1CC1` [Example 5, N-cyclopropyl-4-{6-[(2,3-difluorophenyl)amino]-4-[(3,3,3-trifluoropropyl)amino]-1H-benzimidazol-1-yl}-2-methylbenzamide], the IC50 worked out at 2.3 nM. On to `Cc1cc(-n2cnc3c(NCCC(F)(F)F)cc(Oc4ccc(O)c(F)c4)cc32)ccc1C(=O)NC1CC1` [Example 83, N-cyclopropyl-4-{6-(3-fluoro-4-hydroxyphenoxy)-4-[(3,3,3-trifluoropropyl)amino]-1H-benzimidazol-1-yl}-2-methylbenzamide], for which the 50% inhibitory concentration (IC50) is 0.7 nM. For `CCNC(=O)c1ccc(-n2cnc3c(NCCC(F)(F)F)cc(Oc4cccc(F)c4)cc32)cc1C` [Example 11, N-ethyl-4-{6-(3-fluorophenoxy)-4-[(3,3,3-trifluoropropyl)amino]-1H-benzimidazol-1-yl}-2-methylbenzamide], the IC50 came to 6.6 nM.

With `CCNC(=O)c1ccc(-n2cnc3c(NCCC(F)(F)F)cc(Oc4ccc(O)c(F)c4)cc32)cc1C` [Example 100, N-ethyl-4-{6-(3-fluoro-4-hydroxyphenoxy)-4-[(3,3,3-trifluoropropyl)amino]-1H-benzimidazol-1-yl}-2-methylbenzamide], the IC50 was 3.4 nM.
